Structures can show the parent of a compound that is named as a salt.
system: Salmonella typhimurium ATCC14028 Biofilms; test: Inhibitory effect of test compounds on Salmonella typhimurium ATCC14028 biofilms (crystal violet, 96-well); format: cell-based; settings: Salmonella enterica, 24 h, read-out: IC50 (μM), inhibition of biofilm formation, S. typhimurium ATCC14028, 24 h at 30° C., crystal violet OD540
Experimental: Procedure to Determine the Inhibitory Effect of Test Compounds on Salmonella typhimurium ATCC14028 Biofilms: […] Stock solutions of predetermined concentrations of the test compounds were then made in 1 mL of bacterial culture. […] Sample plates were then incubated for 24 h at 30° C. After incubation, the medium was discarded from the wells and the plates were washed thoroughly with water. Plates were then stained with 110 μL of 0.1% solution of crystal violet (CV) and then incubated at ambient temperature for 30 min. Plates were washed with water again and the remaining stain was solubilized with 200 μL of 95% ethanol. A sample of 125 μL of solubilized CV stain from each well was transferred to the corresponding wells of a polystyrene microtiter dish. Biofilm inhibition was quantitated by measuring the OD540 of each well in which a negative control lane wherein no biofilm was formed served as a background and was subtracted out.

SMILES | IC50 [µM]
CCCCCc1ccc(C(=O)Nc2ccc3c(c2)nc(N)n3CCCCc2ccccc2)cc1 [Compound 5b, N-(2-Amino-1-(4-phenylbutyl)-1H-benzo[d]imidazol-5-yl)-4-pentylbenzamide hydrochloride] | 9.59 ± 0.23
CCCCCc1ccc(C(=O)Nc2ccc3c(c2)nc(N)n3CCc2c[nH]c3ccccc23)cc1 [Compound 5e, N-(1-(2-(1H-Indol-3-yl)ethyl)-2-amino-1H-benzo[d]imidazol-5-yl)-4-pentylbenzamide hydrochloride] | 10 to 15
CCCCCc1ccc(C(=O)Nc2ccc3c(c2)nc(N)n3CCc2cnc[nH]2)cc1 [Compound 5j, N-(1-(2-(1H-Imidazol-5-yl)ethyl)-2-amino-1H-benzo[d]imidazol-5-yl)-4-pentylbenzamide dihydrochloride] | 20 to 40
CCCCOc1ccc(C(=O)Nc2ccc3c(c2)nc(N)n3CCCc2ccccc2)cc1 [Compound 10j, N-(2-Amino-1-(3-phenylpropyl)-1H-benzo[d]imidazol-5-yl)-4-butoxybenzamide hydrochloride] | 15 to 20
Nc1nc2cc(C(=O)Nc3ccc(Cl)c(Cl)c3)ccc2n1CCCc1ccccc1 [Compound 15, 2-Amino-N-(3,4-dichlorophenyl)-1-(3-phenylpropyl)-1H-benzo[d]imidazole-5-carboxamide hydrochloride] | 12.6 ± 1.8
CCCCCc1ccc(C(=O)Nc2ccc3c(c2)nc(N)n3C2CCCC2)cc1 [Compound 5g, N-(2-Amino-1-cyclopentyl-1H-benzo[d]imidazol-5-yl)-4-pentylbenzamide hydrochloride] | 15 to 20
CCCCCc1ccc(C(=O)Nc2ccc3c(c2)nc(N)n3C(C)C)cc1.Cl [Compound 5k, N-(2-Amino-1-isopropyl-1H-benzo[d]imidazol-5-yl)-4-pentylbenzamide hydrochloride] | 20 to 40
Nc1nc2cc(NC(=O)c3cc(Br)cc(Br)c3)ccc2n1CCCc1ccccc1 [Compound 10c, N-(2-Amino-1-(3-phenylpropyl)-1H-benzo[d]imidazol-5-yl)-3,5-dibromobenzamide hydrochloride] | < 7
CCCCCc1ccc(C(=O)Nc2ccc3c(c2)nc(N)n3C)cc1.Cl [Compound 5l, N-(2-Amino-1-methyl-1H-benzo[d]imidazol-5-yl)-4-pentylbenzamide hydrochloride] | > 40
CCCCCCCCCCCCn1c(N)nc2cc(NC(=O)c3ccc(CCCCC)cc3)ccc21.Cl [Compound 5n, N-(2-Amino-1-dodecyl-1H-benzo[d]imidazol-5-yl)-4-pentylbenzamide hydrochloride] | > 50
CCCCCc1ccc(C(=O)Nc2ccc3c(c2)nc(N)n3C2CCCCC2)cc1 [Compound 5h, N-(2-Amino-1-cyclohexyl-1H-benzo[d]imidazol-5-yl)-4-pentylbenzamide hydrochloride] | 15 to 20
CCCCCc1ccc(C(=O)Nc2ccc3[nH]c(N)nc3c2)cc1 [Compound 5o, N-(2-Amino-1H-benzo[d]imidazol-5-yl)-4-pentylbenzamide hydrochloride] | 20 to 40
CCCCCCCCCCn1c(N)nc2cc(NC(=O)c3ccc(CCCCC)cc3)ccc21.Cl [Compound 5m, N-(2-Amino-1-decyl-1H-benzo[d]imidazol-5-yl)-4-pentylbenzamide hydrochloride] | > 50
CCCCCCCCn1c(N)nc2cc(NC(=O)c3ccc(CCCCC)cc3)ccc21 [Compound 5a, N-(2-Amino-1-octyl-1H-benzo[d]imidazol-5-yl)-4-pentylbenzamide hydrochloride] | 6.66 ± 0.32
CCCCCc1ccc(C(=O)Nc2ccc3c(c2)nc(N)n3CCc2ccccc2)cc1 [Compound 1, N-(2-Amino-1-phenethyl-1H-benzo[d]imidazol-5-yl)-4-pentylbenzamide hydrochloride] | 13.1 ± 0.6
CCCCCCn1c(N)nc2cc(NC(=O)c3ccc(CCCCC)cc3)ccc21 [Compound 5c, N-(2-Amino-1-hexyl-1H-benzo[d]imidazol-5-yl)-4-pentylbenzamide hydrochloride] | 10.8 ± 0.56
CCCCCc1ccc(C(=O)Nc2ccc3c(c2)nc(N)n3CCCC)cc1 [Compound 5f, N-(2-Amino-1-butyl-1H-benzo[d]imidazol-5-yl)-4-pentylbenzamide hydrochloride] | 15 to 20

Further lines, results first:

IC50 [µM] | SMILES
10 to 15 | CCCOc1ccc(C(=O)Nc2ccc3c(c2)nc(N)n3CCCc2ccccc2)cc1 [Compound 10g, N-(2-Amino-1-(3-phenylpropyl)-1H-benzo[d]imidazol-5-yl)-4-propoxybenzamide hydrochloride]
20 to 40 | CCCCCc1ccc(C(=O)Nc2ccc3nc(N)n(CC)c3c2)cc1 [Compound 9d, N-(2-Amino-1-ethyl-1H-benzo[d]imidazol-6-yl)-4-pentylbenzamide hydrochloride]
> 40 | CCCCCCCCc1ccc(C(=O)Nc2ccc3c(c2)nc(N)n3CCCc2ccccc2)cc1 [Compound 10r, N-(2-Amino-1-(3-phenylpropyl)-1H-benzo[d]imidazol-5-yl)-4-octylbenzamide hydrochloride]
20 to 40 | CCCCCCC(=O)Nc1ccc2c(c1)nc(N)n2CCCc1ccccc1 [Compound 10p, N-(2-Amino-1-(3-phenylpropyl)-1H-benzo[d]imidazol-5-yl)heptanamide hydrochloride]
10 to 15 | CCCCCc1ccc(C(=O)Nc2ccc3nc(N)n(CCCC)c3c2)cc1 [Compound 9a, N-(2-Amino-1-butyl-1H-benzo[d]imidazol-6-yl)-4-pentylbenzamide hydrochloride]
> 40 | CCCCCCCC(=O)Nc1ccc2c(c1)nc(N)n2CCCc1ccccc1 [Compound 10q, N-(2-Amino-1-(3-phenylpropyl)-1H-benzo[d]imidazol-5-yl)octanamide hydrochloride]
20 to 40 | CCCCCc1ccc(C(=O)Nc2ccc3nc(N)n(C)c3c2)cc1 [Compound 9c, N-(2-Amino-1-methyl-1H-benzo[d]imidazol-6-yl)-4-pentylbenzamide hydrochloride]
10 to 15 | CCCCc1ccc(C(=O)Nc2ccc3c(c2)nc(N)n3CCCc2ccccc2)cc1 [Compound 10f, N-(2-Amino-1-(3-phenylpropyl)-1H-benzo[d]imidazol-5-yl)-4-butylbenzamide hydrochloride]
< 7 | Nc1nc2cc(NC(=O)c3ccc(Br)c(Br)c3)ccc2n1CCCc1ccccc1 [Compound 10b, N-(2-Amino-1-(3-phenylpropyl)-1H-benzo[d]imidazol-5-yl)-3,4-dibromobenzamide hydrochloride]
20 to 40 | CCc1ccc(C(=O)Nc2ccc3c(c2)nc(N)n3CCCc2ccccc2)cc1 [Compound 10o, N-(2-Amino-1-(3-phenylpropyl)-1H-benzo[d]imidazol-5-yl)-4-ethylbenzamide hydrochloride]
15 to 20 | CCCCCCc1ccc(C(=O)Nc2ccc3c(c2)nc(N)n3CCCc2ccccc2)cc1 [Compound 10l, N-(2-Amino-1-(3-phenylpropyl)-1H-benzo[d]imidazol-5-yl)-4-hexylbenzamide hydrochloride]
15 to 20 | CCCCCCCc1ccc(C(=O)Nc2ccc3c(c2)nc(N)n3CCCc2ccccc2)cc1 [Compound 10m, N-(2-Amino-1-(3-phenylpropyl)-1H-benzo[d]imidazol-5-yl)-4-heptylbenzamide hydrochloride]
15 to 20 | CCCCCCCCC(=O)Nc1ccc2c(c1)nc(N)n2CCCc1ccccc1 [Compound 10n, N-(2-Amino-1-(3-phenylpropyl)-1H-benzo[d]imidazol-5-yl)nonanamide hydrochloride]
20 to 40 | CCCCCc1ccc(C(=O)Nc2ccc3nc(N)n(C(C)C)c3c2)cc1 [Compound 9e, N-(2-Amino-1-isopropyl-1H-benzo[d]imidazol-6-yl)-4-pentylbenzamide hydrochloride]
15 to 20 | CCCc1ccc(C(=O)Nc2ccc3c(c2)nc(N)n3CCCc2ccccc2)cc1 [Compound 10k, N-(2-Amino-1-(3-phenylpropyl)-1H-benzo[d]imidazol-5-yl)-4-propylbenzamide hydrochloride]

same assay, conditions: compared with parent compound 1

SMILES | antibiofilm activity (in words)
CCCCCc1ccc(C(=O)Nc2ccc3c(c2)nc(N)n3C(C)C)cc1.Cl [Compound 5k, N-(2-Amino-1-isopropyl-1H-benzo[d]imidazol-5-yl)-4-pentylbenzamide hydrochloride] | reduced or completely abolished antibiofilm activity
CCCCCc1ccc(C(=O)Nc2ccc3c(c2)nc(N)n3C)cc1.Cl [Compound 5l, N-(2-Amino-1-methyl-1H-benzo[d]imidazol-5-yl)-4-pentylbenzamide hydrochloride] | reduced or completely abolished antibiofilm activity
CCCCCCCCCCCCn1c(N)nc2cc(NC(=O)c3ccc(CCCCC)cc3)ccc21.Cl [Compound 5n, N-(2-Amino-1-dodecyl-1H-benzo[d]imidazol-5-yl)-4-pentylbenzamide hydrochloride] | reduced or completely abolished antibiofilm activity
CCCCCCCCCCn1c(N)nc2cc(NC(=O)c3ccc(CCCCC)cc3)ccc21.Cl [Compound 5m, N-(2-Amino-1-decyl-1H-benzo[d]imidazol-5-yl)-4-pentylbenzamide hydrochloride] | reduced or completely abolished antibiofilm activity

same assay, conditions: read-out: IC50 (μM), inhibition of biofilm formation; S. typhimurium ATCC14028, 24 h at 30° C., crystal violet OD540

SMILES | IC50 [µM]
CCCCCCCCCCC(=O)Nc1ccc2c(c1)nc(N)n2CCCc1ccccc1 [Compound 10i, N-(2-Amino-1-(3-phenylpropyI)-1H-benzo[d]imidazol-5-yhundecanamide hydrochloride] | 10 to 15
CCCCCCCCCC(=O)Nc1ccc2c(c1)nc(N)n2CCCc1ccccc1 [Compound 10h, N-(2-Amino-1-(3-phenylpropyl)-1H-benzo[d]imidazol-5-y0decanamide hydrochloride] | 10 to 15

same assay, conditions: read-out: IC50 (μM), inhibition of biofilm formation; S. typhimurium ATCC14028, 24 h at 30° C., crystal violet OD540; hydrochloride

SMILES | IC50 [µM]
CCCCCCCCc1ccc(C(=O)Nc2ccc3c(c2)nc(N)n3CCCc2ccccc2)cc1 [Compound 10r, N-(2-Amino-1-(3-phenylpropyl)-1H-benzo[d]imidazol-5-yl)-4-octylbenzamide hydrochloride] | > 50
CCCCCCCCCCCC(=O)Nc1ccc2c(c1)nc(N)n2CCCc1ccccc1 [Compound 10s, N-(2-Amino-1-(3-phenylpropyl)-1H-benzo[d]imidazol-5-yhdodecanamide hydrochloride] | > 50
CCCCCCCCCCCCCC(=O)Nc1ccc2c(c1)nc(N)n2CCCc1ccccc1 [Compound 10t, N-(2-Amino-1-(3-phenylpropyl)-1H-benzo[d]imidazol-5-yhtetradecanamide hydrochloride] | > 50

same assay, conditions: read-out: IC50 (μM), inhibition of biofilm formation; S. typhimurium ATCC14028, 24 h at 30° C., crystal violet OD540; listed as 15b, hydrochloride

IC50 [µM] | SMILES
5.38 ± 0.79 | Nc1nc2cc(NC(=O)c3ccc(Br)c(Br)c3)ccc2n1CCCc1ccccc1 [Compound 10b, N-(2-Amino-1-(3-phenylpropyl)-1H-benzo[d]imidazol-5-yl)-3,4-dibromobenzamide hydrochloride]

same assay, conditions: read-out: IC50 (μM), inhibition of biofilm formation; S. typhimurium ATCC14028, 24 h at 30° C., crystal violet OD540; listed as 15c, hydrochloride

SMILES | IC50 [µM]
Nc1nc2cc(NC(=O)c3cc(Br)cc(Br)c3)ccc2n1CCCc1ccccc1 [Compound 10c, N-(2-Amino-1-(3-phenylpropyl)-1H-benzo[d]imidazol-5-yl)-3,5-dibromobenzamide hydrochloride] | 5.58 ± 0.21
